Consider 2 compounds from article PMC6504913 (Angewandte Chemie (International ed. in English), 2018).

One data set concerns RAW 264.7 cells. Kind of data set: LPS-induced NO2^– formation in macrophage RAW 264.7 cells. The format is cell-based. The settings on record: 25 μM pretreatment 6 h, then LPS 1.0 μg/mL 18 h.
The format of data set [1] is physicochemical. The settings on record: pH 7.4 aqueous buffer.

Consider `C1COCCN1.COc1ccc(P(=S)(S)N2CCOCC2)cc1` (centres unmarked) [GYY4137], for which the “effect on LPS-induced NO2^– production” value with RAW 264.7 cells is listed as “less pronounced effect”.
On to n-butylthiocarbamate [n-BuTCM-1], for which, in data set [1], the “stability in aqueous buffer (PNA formation)” value is listed as “stable”.
